The subject of the data set is U937 viability, trypan blue exclusion, 24 h. The data set can be described thus: viability loss in U937 leukemia cells – cell-based, trypan blue exclusion, cytotoxicity control for Cdc42 probe extension project, late-stage follow-up (AID 651732). To be noted: at 30 µM (top of the series).

Structures are written as SMILES. Calls of active or inactive are those of the source.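 The calls were made as follows: active = cytotoxic compounds whose viability ratio versus DMSO control falls below 0.85 at 10 µM; inactive = the rest.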

Consider `COc1ccc(C2CC(c3ccccc3)=NN2c2ccc(S(N)(=O)=O)cc2)cc1` (stereo unspecified), for which the viability ratio to DMSO was 0.19 (inactive).
